Structures are written as SMILES. The source made the active and inactive calls. No cut-off for these calls is given here.

Experiment [1] has as its system BaF3. Nature of the experiment: Antiproliferative activity against mouse BaF3 cells stably expressing KIF5B-RET G810C mutant incubated for 72 hrs by CCK8 assay. To be noted: BaF3, 72 h. The class given is functional, cell-based. For orientation: Formazan colour is commonly taken as a measure of viable cells.
For experiment [2], the system named is BaF3. Nature of the experiment: PROTAC activity at CRBN/KIF5B-RET (unknown origin) expressed in mouse BaF3 cells assessed as induction of RET degradation at 10 nM incubated for 24 hrs by immunoblot analysis relative to control. The format is cell-based. On the technique in general: A western blot detects proteins with antibodies after separation by electrophoresis.

Experiment [3] concerns BaF3. Nature of the experiment: Antiproliferative activity against mouse BaF3 cells stably expressing KIF5B-RET G810S mutant incubated for 72 hrs by CCK8 assay. The format is functional, cell-based. To be noted: BaF3, 72 h.
Experiment [4] deals with Proto-oncogene tyrosine-protein kinase receptor Ret (Homo sapiens, UniProt P07949). Nature of the experiment: Inhibition of RET (unknown origin) preincubated for 10 mins followed by substrate/ATP addition measured after 30 mins by HTRF assay. In general terms: Time-resolved FRET reads energy transfer from a long-lived donor to a nearby acceptor.
Experiment [5] has as its system BaF3. Nature of the experiment: Antiproliferative activity against mouse BaF3 cells stably expressing KIF5B-RET V804M mutant incubated for 72 hrs by CCK8 assay. The format is functional, cell-based. To be noted: BaF3, 72 h.
Experiment [6] deals with BaF3. Nature of the experiment: Antiproliferative activity against mouse BaF3 cells stably expressing KIF5B-RET incubated for 72 hrs by CCK8 assay. The format is functional, cell-based. The following applies: BaF3, 72 h.
Experiment [7] has as its system BaF3. Nature of the experiment: Antiproliferative activity against mouse BaF3 cells stably expressing KIF5B-RET G810R mutant incubated for 72 hrs by CCK8 assay. The format is functional, cell-based. The following applies: BaF3, 72 h.
Experiment [8] relates to BaF3. Nature of the experiment: Induction of degradation of KIF5B-RET (unknown origin) expressed in mouse BaF3 cells at 10 nM incubated for 24 hrs by immunoblot analysis relative to control. The class given is cell-based. The following applies: Homo sapiens.
In experiment [9] the test system is BaF3. Nature of the experiment: PROTAC activity at VHL/KIF5B-RET (unknown origin) expressed in mouse BaF3 cells assessed as induction of RET degradation at 10 nM incubated for 24 hrs by immunoblot analysis relative to control. The format is cell-based.
The nature of experiment [10]: Induction of apoptosis in mouse BaF3 cells stably expressing KIF5B-RET G810C mutant assessed as late apoptotic cells at 100 nM incubated for 48 hrs by Annexin V-FITC/PI staining based flow cytometry (reference value: 5.99 %). The format is functional.
Experiment [11] has as its system BaF3. Nature of the experiment: Antiproliferative activity against mouse BaF3 cells stably expressing CCDC6-RET G810C mutant incubated for 72 hrs by CCK8 assay. The class given is functional, cell-based. The following applies: BaF3, 72 h.
In experiment [12] the test system is BaF3. Nature of the experiment: Antiproliferative activity against mouse BaF3 cells stably expressing CCDC6-RET incubated for 72 hrs by CCK8 assay. The class given is functional, cell-based. The following applies: BaF3, 72 h.
The nature of experiment [13]: Induction of apoptosis in mouse BaF3 cells stably expressing KIF5B-RET G810C mutant assessed as necrotic cells at 100 nM incubated for 48 hrs by Annexin V-FITC/PI staining based flow cytometry (reference value: 0.94 %). The class given is functional.
A short description of experiment [14]: Induction of apoptosis in mouse BaF3 cells stably expressing KIF5B-RET G810C mutant assessed as viable cells at 100 nM incubated for 48 hrs by Annexin V-FITC/PI staining based flow cytometry (reference value: 92.21 %). The class given is functional. The following applies: read-out: Activity.
Experiment [15] has as its system BaF3. Nature of the experiment: Antiproliferative activity against mouse BaF3 cells stably expressing CCDC6-RET G810R mutant incubated for 72 hrs by CCK8 assay. The format is functional, cell-based. To be noted: BaF3, 72 h.
A short description of experiment [16]: Induction of apoptosis in mouse BaF3 cells stably expressing KIF5B-RET G810C mutant assessed as early apoptotic cells at 100 nM incubated for 48 hrs by Annexin V-FITC/PI staining based flow cytometry (reference value: 0.86 %). The class given is functional.
Experiment [17] concerns BaF3. Nature of the experiment: Antiproliferative activity against mouse BaF3 cells stably expressing CCDC6-RET V804M mutant incubated for 72 hrs by CCK8 assay. The format is functional, cell-based. The following applies: BaF3, 72 h.
The subject of experiment [18] is BaF3. Nature of the experiment: PROTAC activity at CRBN/KIF5B-RET (unknown origin) expressed in mouse BaF3 cells assessed as induction of RET degradation at 10 nM incubated for 24 hrs by immunoblot analysis. The class given is cell-based.

Chain of Proto-oncogene tyrosine-protein kinase receptor Ret (P07949 whole entry): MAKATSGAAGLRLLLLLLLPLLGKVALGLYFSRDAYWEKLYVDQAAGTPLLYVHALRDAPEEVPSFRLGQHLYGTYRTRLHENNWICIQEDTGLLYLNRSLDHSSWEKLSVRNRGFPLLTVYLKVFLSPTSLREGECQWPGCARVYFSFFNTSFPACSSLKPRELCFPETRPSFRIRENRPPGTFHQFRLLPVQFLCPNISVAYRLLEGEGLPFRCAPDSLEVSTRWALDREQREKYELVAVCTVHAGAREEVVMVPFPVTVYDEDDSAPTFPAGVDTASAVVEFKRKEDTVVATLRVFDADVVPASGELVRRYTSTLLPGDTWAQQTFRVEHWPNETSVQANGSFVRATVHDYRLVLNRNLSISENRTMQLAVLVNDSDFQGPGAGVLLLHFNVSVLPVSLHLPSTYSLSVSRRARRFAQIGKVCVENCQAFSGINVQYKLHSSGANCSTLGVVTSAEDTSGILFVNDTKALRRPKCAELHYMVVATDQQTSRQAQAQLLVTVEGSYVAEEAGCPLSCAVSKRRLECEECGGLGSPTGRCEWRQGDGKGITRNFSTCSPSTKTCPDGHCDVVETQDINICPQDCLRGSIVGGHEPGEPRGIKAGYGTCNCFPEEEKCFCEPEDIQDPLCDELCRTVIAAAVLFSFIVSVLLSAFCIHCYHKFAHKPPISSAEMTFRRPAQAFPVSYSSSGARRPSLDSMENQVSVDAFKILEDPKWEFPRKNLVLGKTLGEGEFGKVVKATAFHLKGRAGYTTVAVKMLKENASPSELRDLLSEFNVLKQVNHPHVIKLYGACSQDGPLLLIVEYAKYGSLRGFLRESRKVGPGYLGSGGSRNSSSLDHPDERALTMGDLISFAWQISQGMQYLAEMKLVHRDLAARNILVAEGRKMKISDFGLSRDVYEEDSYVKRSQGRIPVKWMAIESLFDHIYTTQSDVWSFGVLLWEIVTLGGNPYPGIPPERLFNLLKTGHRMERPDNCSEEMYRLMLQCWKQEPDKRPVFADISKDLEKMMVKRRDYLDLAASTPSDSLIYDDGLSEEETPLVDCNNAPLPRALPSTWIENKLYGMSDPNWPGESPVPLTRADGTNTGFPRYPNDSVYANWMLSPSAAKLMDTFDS

With `COc1ccc(CN2C3CC2CN(c2ccc(-c4cc(N5CCN(CC6CN(c7ccc8c(c7)C(=O)N(C7CCC(=O)NC7=O)C8=O)C6)CC5)cn5ncc(C#N)c45)cn2)C3)cn1` (stereo unspecified), the IC50 in the experiment on BaF3 [1] amounted to 145 nM; in the experiment on BaF3 [3], 35.7 nM; in experiment [4], 0.227 nM; with BaF3 [5], 11.5 nM; in the experiment with BaF3 [6], 1.9 nM; in the experiment with BaF3 [7], 1030 nM. Further, the Activity with BaF3 [2] turned out to be 72%.

For `COc1ccc(CN2C3CC2CN(c2ccc(-c4cc(N5CCNCC5)cn5ncc(C#N)c45)cn2)C3)cn1`, the IC50 with BaF3 [1] turned out to be 107 nM; in the experiment with BaF3 [3] it was 98.6 nM; in the experiment on BaF3 [5], 36.1 nM; in the experiment with BaF3 [6] it was 5.6 nM; in the experiment with BaF3 [7], 770 nM. The compound further yielded an Activity with BaF3 [8] of 0%.

With `COc1ccc(CN2C3CC2CN(c2ccc(-c4cc(N5CCN(C(=O)CCCCCCCNc6cccc7c6C(=O)N(C6CCC(=O)NC6=O)C7=O)CC5)cn5ncc(C#N)c45)cn2)C3)cn1` (stereo unspecified), the IC50 worked out at 126 nM in the experiment on BaF3 [1]; 62.1 nM in the experiment on BaF3 [3]; 0.203 nM in experiment [4]; 13.7 nM with BaF3 [5]; 1.6 nM in the experiment with BaF3 [6]; 453 nM in the experiment on BaF3 [7]. Further, in the experiment on BaF3 [2], the Activity turned out to be 73%.

Consider `COc1ccc(CN2C3CC2CN(c2ccc(-c4cc(N5CCC(N6CCN(C(=O)CCCNc7cccc8c7C(=O)N(C7CCC(=O)NC7=O)C8=O)CC6)CC5)cn5ncc(C#N)c45)cn2)C3)cn1` (stereo unspecified), for which the IC50 with BaF3 [1] was 149 nM; in the experiment on BaF3 [3] it was 76.1 nM; in experiment [4], 0.276 nM; in the experiment with BaF3 [5], 11.3 nM; in the experiment on BaF3 [6], 2.5 nM; in the experiment with BaF3 [7] it was 513 nM. The Activity in the experiment with BaF3 [2] is 62%.

For the compound `COc1ccc(CN2C3CC2CN(c2ccc(-c4cc(N5CCC(N6CCN(C(=O)CCCCCNc7ccc8c(c7)C(=O)N(C7CCC(=O)NC7=O)C8=O)CC6)CC5)cn5ncc(C#N)c45)cn2)C3)cn1` (stereo unspecified), the IC50 in the experiment with BaF3 [1] stood at 182 nM; in the experiment on BaF3 [3] it was 78.3 nM; in experiment [4], 0.391 nM; in the experiment with BaF3 [5], 13.1 nM; with BaF3 [6], 2.9 nM; with BaF3 [7] it was 552 nM. The Activity with BaF3 [2] stood at 61%.

Take `COc1ccc(CN2C3CC2CN(c2ccc(-c4cc(N5CCC(N6CCN(C(=O)CCCCCNc7cccc8c7C(=O)N(C7CCC(=O)NC7=O)C8=O)CC6)CC5)cn5ncc(C#N)c45)cn2)C3)cn1` (stereo unspecified): the 50% inhibitory concentration (IC50) was 50.4 nM in the experiment with BaF3 [1]; 53.6 nM in the experiment on BaF3 [3]; 0.329 nM in experiment [4]; 5.2 nM in the experiment with BaF3 [5]; 1.8 nM in the experiment with BaF3 [6]; 376 nM with BaF3 [7]. In addition, in the experiment with BaF3 [2], the Activity was 72%.

As for `COc1ccc(CN2C3CC2CN(c2ccc(-c4cc(N5CCN(C(=O)CCCCCCCCC(=O)N[C@H](C(=O)N6C[C@H](O)C[C@H]6C(=O)N[C@@H](C)c6ccc(-c7scnc7C)cc6)C(C)(C)C)CC5)cn5ncc(C#N)c45)cn2)C3)cn1`, the IC50 is 410 nM with BaF3 [1]; 216 nM with BaF3 [3]; 36.5 nM with BaF3 [5]; 12.3 nM in the experiment with BaF3 [6]; over 5000 nM with BaF3 [7]. Further, in the experiment with BaF3 [9], the Activity stood at 39%.

Turning to `COc1ccc(CN2C3CC2CN(c2ccc(-c4cc(N5CCN(C6CN(c7ccc8c(c7)C(=O)N(C7CCC(=O)NC7=O)C8=O)C6)CC5)cn5ncc(C#N)c45)cn2)C3)cn1` (stereo unspecified), the IC50 in the experiment with BaF3 [1] was 322 nM; in the experiment on BaF3 [3], 52.6 nM; in experiment [4], 0.215 nM; in the experiment with BaF3 [5] it was 8.1 nM; in the experiment with BaF3 [6], 2.8 nM; in the experiment on BaF3 [7] it was 1110 nM. In addition, the Activity with BaF3 [2] was found to be 71%.

With `COc1ccc(CN2C3CC2CN(c2ccc(-c4cc(OCC(C)(C)O)cn5ncc(C#N)c45)cn2)C3)cn1` [SELPERCATINIB], the IC50 is 380 nM in the experiment on BaF3 [1]; 95.2 nM in the experiment on BaF3 [3]; 16.5 nM with BaF3 [5]; 626 nM in the experiment with BaF3 [11]; 4.2 nM with BaF3 [12]; 7.7 nM in the experiment on BaF3 [6]. For the same compound, the IC50 with BaF3 [15] was 365 nM; in the experiment on BaF3 [7], 690 nM; in the experiment on BaF3 [17], 12.2 nM. Besides, the Activity came out at 6.67% in experiment [10], 0% with BaF3 [8], 1.63% in experiment [13] and 1.04% in [16]. The viability at 0.1 µM in experiment [14] turned out to be 90.7%.

As to `COc1ccc(CN2C3CC2CN(c2ccc(-c4cc(N5CCC(N6CCN(CCCC#Cc7cccc8c7CN(C7CCC(=O)N(C)C7=O)C8=O)CC6)CC5)cn5ncc(C#N)c45)cn2)C3)cn1` (stereo unspecified), the outcome in the experiment on BaF3 [18] was inactive.

Take `COc1ccc(CN2C3CC2CN(c2ccc(-c4cc(N5CCN(CCCCCCC(=O)N[C@H](C(=O)N6C[C@H](O)C[C@H]6C(=O)N[C@@H](C)c6ccc(-c7scnc7C)cc6)C(C)(C)C)CC5)cn5ncc(C#N)c45)cn2)C3)cn1`: the IC50 was over 5000 nM in the experiment on BaF3 [1]; over 5000 nM with BaF3 [3]; 983 nM in the experiment on BaF3 [5]; 40.2 nM in the experiment on BaF3 [6]; over 5000 nM in the experiment on BaF3 [7]. Besides, the Activity in the experiment with BaF3 [9] turned out to be 23%.

As for `COc1ccc(CN2C3CC2CN(c2ccc(-c4cc(N5CCC(N6CCNCC6)CC5)cn5ncc(C#N)c45)cn2)C3)cn1`, the IC50 in the experiment with BaF3 [1] stood at 156 nM; in the experiment with BaF3 [3], 113 nM; in the experiment on BaF3 [5], 42.9 nM; in the experiment on BaF3 [6] it was 4.3 nM; in the experiment on BaF3 [7], 724 nM. The Activity with BaF3 [8] is 0%.

Usually IC50 stands for the concentration that gives 50% inhibition.

The record behind these values is ChEMBL document CHEMBL6096698, “Discovery of a Selective and Orally Bioavailable RET Degrader with Effectiveness in Various Mutations” (J Med Chem, 2025).
